Paper PMC11290853, “Cholesterol-dependent dynamic changes in the conformation of the type 1 cholecystokinin receptor affect ligand binding and G protein coupling” (PLOS Biology, 2024)
Substitutions are numbered along the chain they refer to.

Legend:
CCK1R(Y140A) [1] = target: T1, CCK1R(Y140A) (Homo sapiens, UniProt P32238, Y140A); assay: fluorescence polarization kinetic assay, CCK1R(Y140A); type: binding
T1 construct: expressed in transfected cells; some KO cells re-transfected with Galphaq or Galpha11), receptor-enriched membranes
T1 sequence (P32238 1-428 Y140A): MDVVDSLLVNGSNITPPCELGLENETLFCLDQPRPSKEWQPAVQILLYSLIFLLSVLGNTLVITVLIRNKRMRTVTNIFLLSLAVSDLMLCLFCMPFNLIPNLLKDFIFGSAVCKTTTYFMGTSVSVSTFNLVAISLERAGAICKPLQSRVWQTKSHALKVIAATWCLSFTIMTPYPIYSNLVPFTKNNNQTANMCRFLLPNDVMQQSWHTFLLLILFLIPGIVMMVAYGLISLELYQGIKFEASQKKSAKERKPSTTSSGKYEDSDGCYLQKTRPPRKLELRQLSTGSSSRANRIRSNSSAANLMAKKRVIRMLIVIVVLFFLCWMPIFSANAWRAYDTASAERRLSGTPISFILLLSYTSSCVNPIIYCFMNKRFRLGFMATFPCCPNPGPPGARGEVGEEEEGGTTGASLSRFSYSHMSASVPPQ
Method: (§1) Cells were grown either in Ham-F12 medium supplemented with 5% Fetal Clone II or DMEM supplemented with 10% Fetal Clone II with 1% penicillin-streptomycin, 4 mM glutamine mixture in a humidified atmosphere containing 5% CO2 at 37°C.
(§2) This was done in the absence or presence of the non-hydrolyzable GTP analogue, GppNHp, at 10 μM concentration.

CCK1R(sterol 7M) [2] = target: T2, CCK1R(sterol 7M) (Homo sapiens, UniProt P32238, F130L/G141S/I216L/I223V/L219F/M226A/S136A); assay: fluorescence polarization kinetic assay, CCK1R(sterol 7M); type: binding
T2 construct: expressed in transfected cells
T2 sequence (P32238 1-428 F130L/S136A/G141S/I216L/L219F/I223V/M226A): T1 sequence (P32238 1-428 Y140A) with F130L, S136A, A140Y, G141S, I216L, L219F, I223V, M226A
Method: as §1, §2

CCK2R WT = target: T3, CCK2R WT (Homo sapiens, UniProt P32239); assay: fluorescence polarization kinetic assay, CCK2R WT; type: binding
T3 construct: expressed in transfected cells; some KO cells re-transfected with Galphaq or Galpha11), receptor-enriched membranes
T3 sequence (P32239 1-447): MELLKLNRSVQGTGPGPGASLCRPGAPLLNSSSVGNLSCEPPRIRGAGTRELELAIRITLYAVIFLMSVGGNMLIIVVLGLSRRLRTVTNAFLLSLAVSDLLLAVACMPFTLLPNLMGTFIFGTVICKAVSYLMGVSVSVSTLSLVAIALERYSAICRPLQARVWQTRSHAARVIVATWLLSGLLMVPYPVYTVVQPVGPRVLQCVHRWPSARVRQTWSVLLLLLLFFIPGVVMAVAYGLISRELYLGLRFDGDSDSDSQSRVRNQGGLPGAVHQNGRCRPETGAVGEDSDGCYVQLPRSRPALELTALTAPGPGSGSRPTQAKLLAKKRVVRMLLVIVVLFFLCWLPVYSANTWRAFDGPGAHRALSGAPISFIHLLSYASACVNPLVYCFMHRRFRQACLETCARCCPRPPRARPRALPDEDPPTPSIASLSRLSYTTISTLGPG
Method: as §1, §2

CCK2R(sterol 7M) = target: T4, CCK2R(sterol 7M) (Homo sapiens, UniProt P32239, A149S/A235M/F228L/L143F/L225I/S154G/V232I); assay: fluorescence polarization kinetic assay, CCK2R(sterol 7M); type: binding; conditions: vs CCK2R
T4 construct: expressed in transfected cells
T4 sequence (P32239 1-447 L143F/A149S/S154G/L225I/F228L/V232I/A235M): T3 sequence (P32239 1-447) with L143F, A149S, S154G, L225I, F228L, V232I, A235M
Method: as §1, §2

SRD15-CCK1R cells = target: T5, SRD15-CCK1R cells (Homo sapiens, UniProt P32238); assay: fluorescence polarization kinetic assay, SRD15-CCK1R cells; type: binding; conditions: vs WT CCK1R
T5 construct: expressed in transfected cells; host or cells: SRD15 cells (genetically modified CHO cells with elevated membrane cholesterol)
T5 sequence (P32238 1-428): T1 sequence (P32238 1-428 Y140A) with A140Y
Method: as §1, §2

CCK1R(Y140A) [3] = assay: photoaffinity labeling, CCK1R(Y140A); type: binding, human; conditions: CNBr cleavage, 10% NuPAGE gel
Method: (§3) After incubation, contents were transferred to a siliconized glass tube and exposed to UV irradiation for 30 min at 4°C with 3,500-Å lamps in a Rayonet photochemical reactor (Southern New England Ultraviolet, Hamden, Connecticut). After photolysis, membrane suspensions were centrifuged at 25,000×g for 5 min and washed twice with ice-cold medium and then resuspended in 30 μl of SDS sample buffer prior to separation on 10% SDS-polyacrylamide gels. Gels were dried and radiolabeled bands were visualized by autoradiography. The apparent molecular weight of radiolabeled receptor fragments was determined from the mobility of Prosieve color protein standards (Cambrex, Rockland, Maine). Receptor radiolabeled bands were excised from the polyacrylamide gel, eluted, and lyophilized, then precipitated with ethanol. Radiochemically pure receptor suspension was cleaved with 2.5 mg of CNBr in 70% formic acid, as described previously. The cleaved receptor products were washed, dried, and resolve in 10% NuPAGE gel with MES running buffer (Invitrogen, Carlsbad, California). The labeled products were identified by autoradiography.

CCK1R(sterol 7M) [4] = assay: photoaffinity labeling, CCK1R(sterol 7M); type: binding, human; conditions: CNBr cleavage, 10% NuPAGE gel
Method: as §3

WT CCK1R = conditions: large glycosylated CNBr fragment; ref [28],[31]; cited from earlier work
CCK2R = conditions: CNBr fragment; ref [28]; cited from earlier work

Molecule | off rate, Gq or G11 transfected (CCK1R(Y140A) [1]; Gq/11 KO cells) | rate of CCK dissociation (off rate) (CCK1R(Y140A) [1]; vs WT CCK1R) | kinetics in Gq/11 KO cells (CCK1R(sterol 7M) [2]; absence of Gq/11 proteins) | off rate (CCK1R(sterol 7M) [2]; vs CCK1R and CCK1R(Y140A)) | ligand dissociation rate, Gq or G11 reintroduced (CCK2R WT; Gq/11 KO cells) | rate of CCK dissociation (off rate) (CCK2R WT; vs WT CCK1R) | ligand dissociation (CCK2R(sterol 7M)) | rate of CCK dissociation (off rate) (SRD15-CCK1R cells) | photoaffinity labeling pattern (CCK1R(Y140A) [3]) | photoaffinity labeling pattern (CCK1R(sterol 7M) [4]) | site of covalent labeling (WT CCK1R) | site of covalent labeling (CCK2R)
CCCC[C@H](NC(=O)[C@H](Cc1ccc(OS(=O)(=O)O)cc1)NC(=O)[C@H](CC(=O)O)NC(=O)CNC(=O)c1ccc(-c2c3ccc(=N)c(S(=O)(=O)O)c-3oc3c(S(=O)(=O)O)c(N)ccc23)c(C(=O)O)c1)C(=O)NCC(=O)N[C@@H](Cc1c[nH]c2ccccc12)C(=O)N[C@@H](CCCC)C(=O)N[C@@H](CC(=O)O)C(=O)N[C@@H](Cc1ccccc1)C(N)=O [alexa^488-Gly-[(Nle^28,31)CCK-26-33]] | transfection of Gq, but not G11, reversed the higher off rate | significantly slower | not altered by absence of Gq/11 proteins | intermediate between that of CCK1R and CCK1R(Y140A) | reintroduction of either Gq or G11 reversed the increased ligand dissociation rate | slower at WT CCK2R relative to WT CCK1R | significantly faster ligand dissociation than CCK2R | significantly slower |  |  |  | 
(^125I-des-amino-Tyr)-Gly-[(Nle^28,31)CCK(26–32)]-Bpa^33 |  |  |  |  |  |  |  |  | labeling of a much smaller and non-glycosylated fragment of the receptor | the same as previously demonstrated for WT CCK1R | Trp39 | Thr119
